Measurements published in ChEMBL document CHEMBL1137124, “Lysine sulfonamides as novel HIV-protease inhibitors: Nepsilon-disubstituted ureas” (Bioorg Med Chem Lett, 2004).

Experiments:
[1] = tested on: Human immunodeficiency virus; test: Effective concentration against wild type virus HIV virus was determined in anti-viral assay; type: functional, organism-based; settings: Human immunodeficiency virus 1
[2] = target: Human immunodeficiency virus type 1 protease (Human immunodeficiency virus 1, UniProt Q72874); test: Inhibition constant for HIV aspartyl protease
[3] = tested on: Human immunodeficiency virus; test: Effective concentration against wild type HIV virus was determined in anti-viral assay; type: functional, organism-based; settings: Human immunodeficiency virus 1

Row | SMILES | EC50 [1] [nM] | Ki [2] [nM] | EC50 [3] [nM]
1 | CC(C)CCN([C@H](CO)CCCCNC(=O)N(Cc1ccc2c(c1)OCO2)Cc1cccs1)S(=O)(=O)c1ccc(N)cc1 | 800 | 1.4 | 
2 | Cc1ccc(S(=O)(=O)N(CC(C)C)[C@@H](CCCCNC(=O)N(Cc2ccccc2)Cc2ccccc2)C(=O)O)cc1 |  | 7.2 | 
3 | CC(C)CN([C@H](CO)CCCCNC(=O)N(Cc1ccc(C(F)(F)F)cc1)Cc1ccc2c(c1)OCO2)S(=O)(=O)c1ccc(N)cc1 |  | 2.5 | 1600
4 | COc1ccc(CN(Cc2ccc3c(c2)OCO3)C(=O)NCCCC[C@@H](CO)N(CCC(C)C)S(=O)(=O)c2ccc(N)cc2)cc1 | 700 | 2.9 | 
5 | Cc1ccc(S(=O)(=O)N(CC(C)C)[C@@H](CCCCNC(=O)N(Cc2ccccc2)Cc2ccncc2)C(=O)O)cc1 |  | 3.7 | 
6 | Cc1ccc(S(=O)(=O)N(CC(C)C)[C@H](CO)CCCCNC(=O)N(Cc2ccccc2)Cc2ccccc2)cc1 |  | 15 | 
7 | COc1ccc(CN(Cc2ccc3c(c2)OCO3)C(=O)NCCCC[C@@H](CO)N(CCC(C)C)S(=O)(=O)c2ccc(N)cc2)cc1OC |  | 3 | 
8 | CC(C)CCN([C@H](CO)CCCCNC(=O)N(Cc1ccc(C(F)(F)F)cc1)Cc1ccc2c(c1)OCO2)S(=O)(=O)c1ccc(N)cc1 | > 10000 | 3 | 
9 | Cc1ccc(S(=O)(=O)N(CC(C)C)[C@@H](CCCCNC(=O)NCCc2ccccc2)C(=O)O)cc1 |  | 204 | 
10 | COc1ccc(CN(Cc2ccc3c(c2)OCO3)C(=S)NCCCC[C@@H](CO)N(CCC(C)C)S(=O)(=O)c2ccc(N)cc2)cc1 |  | 3.6 | 
11 | CC(C)CCN([C@H](CO)CCCCNC(=O)N(Cc1ccccc1)Cc1ccccc1)S(=O)(=O)c1ccc(N)cc1 | > 10000 | 5.8 | 
12 | CC(C)CN([C@H](CO)CCCCNC(=O)N(Cc1ccccc1)Cc1cccs1)S(=O)(=O)c1ccc(N)cc1 |  | 11 | 5000
13 | Cc1ccc(S(=O)(=O)N(CC(C)C)[C@@H](CCCCNC(=O)N(Cc2ccccc2)C(C)C)C(=O)O)cc1 |  | 19 | 
14 | CC(C)CN([C@H](CO)CCCCNC(=O)N(Cc1ccc2c(c1)OCO2)Cc1cccs1)S(=O)(=O)c1ccc(N)cc1 |  | 2 | 4000
15 | COc1cccc(CN(Cc2ccc3c(c2)OCO3)C(=O)NCCCC[C@@H](CO)N(CCC(C)C)S(=O)(=O)c2ccc(N)cc2)c1 |  | 2.2 | 
16 | CC(C)CN([C@H](CO)CCCCNC(=O)N(Cc1ccccc1)Cc1ccncc1)S(=O)(=O)c1ccc(N)cc1 |  | 90 | > 10000
17 | Cc1ccc(S(=O)(=O)N(CC(C)C)[C@@H](CCCCNC(=O)N(CCc2ccccc2)Cc2ccccc2)C(=O)O)cc1 |  | > 300 | 
18 | CC(C)CN([C@H](CO)CCCCNC(=O)N(Cc1ccccc1)Cc1ccccc1)S(=O)(=O)c1ccc(N)cc1 |  | 12 | 3000
19 | CC(C)CCN([C@H](CO)CCCCNC(=O)N(Cc1ccc(F)cc1)Cc1ccc2c(c1)OCO2)S(=O)(=O)c1ccc(N)cc1 | 1200 | 4.9 | 

Row | SMILES | EC50 [1] [nM] | Ki [2] [nM] | EC50 [3] [nM]
20 | CC(C)CCN([C@H](CO)CCCCNC(=O)N(Cc1ccc([N+](=O)[O-])cc1)Cc1ccc2c(c1)OCO2)S(=O)(=O)c1ccc(N)cc1 | 845 | 2.2 | 
21 | CC(C)CN([C@H](CO)CCCCNC(=O)N(Cc1ccccc1)Cc1ccc2c(c1)OCO2)S(=O)(=O)c1ccc(N)cc1 |  | 2.6 | 1400
22 | CC(C)CCN([C@H](CO)CCCCNC(=O)N(Cc1ccc(F)cc1)Cc1ccc2c(c1)OCCO2)S(=O)(=O)c1ccc(N)cc1 |  | 5.4 | 
23 | CC(C)CN([C@H](CO)CCCCNC(=O)N(Cc1ccc2c(c1)OCO2)Cc1ccc2c(c1)OCO2)S(=O)(=O)c1ccc(N)cc1 |  | 1.7 | 150
24 | CC(C)CN([C@H](CO)CCCCNC(=O)N(Cc1ccc(F)cc1)Cc1ccc2c(c1)OCO2)S(=O)(=O)c1ccc(N)cc1 |  | 2 | 488
25 | CC(C)CN([C@H](CO)CCCCNC(=O)N(Cc1ccccc1)Cc1cccc2c1OCO2)S(=O)(=O)c1ccc(N)cc1 |  | 5.4 | > 10000
26 | CC(C)CN([C@H](CO)CCCCNC(=O)N(Cc1ccsc1)Cc1ccc2c(c1)OCO2)S(=O)(=O)c1ccc(N)cc1 |  | 6.3 | 5000
27 | CC(C)CN([C@H](CO)CCCCNC(=O)N(Cc1ccccc1)Cc1cccnc1)S(=O)(=O)c1ccc(N)cc1 |  | 34 | 8500
28 | COc1cccc(CN(Cc2ccc3c(c2)OCO3)C(=S)NCCCC[C@@H](CO)N(CCC(C)C)S(=O)(=O)c2ccc(N)cc2)c1 |  | 2.6 | 
29 | COc1ccc(CN(Cc2ccc3c(c2)OCO3)C(=O)NCCCC[C@@H](CO)N(CC(C)C)S(=O)(=O)c2ccc(N)cc2)cc1 |  | 2.2 | 500
30 | CC(C)CCN([C@H](CO)CCCCNC(=O)N(Cc1ccccc1)Cc1cccc2c1OCO2)S(=O)(=O)c1ccc(N)cc1 | > 10000 | 4 | 
31 | Cc1ccc(S(=O)(=O)N(CC(C)C)[C@@H](CCCCNC(=O)NCc2ccccn2)C(=O)O)cc1 |  | > 300 | 
32 | COc1ccc(CN(Cc2ccc3c(c2)OCO3)C(=S)NCCCC[C@@H](CO)N(CCC(C)C)S(=O)(=O)c2ccc(N)cc2)cc1OC |  | 2.9 | 
33 | Cc1ccc(S(=O)(=O)N(CC(C)C)[C@@H](CCCCNC(=O)N(C(C)C)C(C)C)C(=O)O)cc1 |  | 300 | 
34 | CC(C)CN([C@H](CO)CCCCNC(=O)N(Cc1ccccc1)Cc1ccc(F)cc1F)S(=O)(=O)c1ccc(N)cc1 |  | 12 | 3200
35 | CC(C)CN([C@H](CO)CCCCNC(=O)N(Cc1ccc([N+](=O)[O-])cc1)Cc1ccc2c(c1)OCO2)S(=O)(=O)c1ccc(N)cc1 |  | 2 | 620
36 | CC(C)CCN([C@H](CO)CCCCNC(=O)N(Cc1ccccc1)Cc1ccc2c(c1)OCO2)S(=O)(=O)c1ccc(N)cc1 | 871 | 4.1 | 
37 | CC(C)CCN([C@H](CO)CCCCNC(=S)N(Cc1ccc(F)cc1)Cc1ccc2c(c1)OCCO2)S(=O)(=O)c1ccc(N)cc1 |  | 9.9 | 
38 | CC(C)CN([C@H](CO)CCCCNC(=O)N(Cc1ccccc1)Cc1ccc(F)cc1)S(=O)(=O)c1ccc(N)cc1 |  | 3.3 | > 10000
